Reference: patent US20250188085A1, “COMPOSITIONS AND METHODS FOR INHIBITION OF RAS” (THERAS, INC., priority 2022, published 2025)
Read-outs that look alike come from different tables or passages of the source.

Assays:
[1] = target: T1, GppNHp-loaded KRAS4b (amino acids 1-169) G12C/C118S protein (Homo sapiens, UniProt P01116, C118S/G12C); test: Covalent cysteine 12 modification by MALDI-TOF MS, GppNHp-loaded KRAS G12C; format: binding; settings: 15 minutes reaction time point
T1 construct: KRAS4b (amino acids 1-169) G12C/C118S protein; made in house
Method: (§1) Reaction: 1 μM of GppNHp-, GTP-, or GDP-loaded KRAS4b (amino acids 1-169) G12C/C118S protein (produced in-house by Protein Expression Laboratory, FNLCR/Leidos Biomed) in 20 mM 4-(2-hydroxyethyl)-1-piperazineethanesulfonic acid (HEPES) buffer containing 150 mM NaCl, 1 mM MgCl2, pH 7.3 was prepared freshly before assay. Ten-μL aliquots of protein were dispensed onto low volume 384-well plate, then 375 nL DMSO, and 25 nL of tested compounds from 5 mM DMSO stocks were added to appropriate wells using ECHO 555 acoustic liquid handler (Labcyte Inc.). For each reaction/assay, three blanks were prepared by mixing 10 μL of protein solution with 400 nL DMSO. The contents of the wells were carefully mixed by aspiration, and then each plate was sealed with an adhesive cover, centrifuged at 2000 g for 1 minute, and kept in the dark at room temperature until 5 min, 15 min, 30 min, or 2 h collections.
(§2) Target pretreatment: Before each assay MALDI target (Bruker MPT 384 ground steel BC) was pre-treated by pipetting on each spot 0.75 μL of saturated sinapinic acid in acetonitrile (ACN).
(§3) Sample preparation: At collection time point, 2 μL of reaction mixtures were pipetted out into 20 μL MALDI matrix solution (saturated solution of sinapinic acid in 1:1 ACN:water solution containing 0.75% trifluoroacetic acid (TFA)) deposited on 384 well polypropylene plate. Resulting solution was mixed by aspiration, centrifuged at 2000 g for 1 minute, then 1 μL aliquots were dispensed on pre-treated MALDI target using Beckman Coulter Biomek FXP 96/384-Span-8 Laboratory Automation Workstation. Finally, the MALDI target was dried under mild vacuum to produce spots with fine crystalline structure.
(§4) Measurements: MALDI-TOF measurements were performed on a Bruker Daltonics rapiflex Tissuetyper TOF-TOF mass spectrometer using linear mode and mass range from 18.6 to 21.6 kDa. Detector gain was set to 3.3× (483 V), sample rate to 5 GS/s, real time smoothing to medium (175 MHz), laser smart beam pattern was set to: “MS Thin Layer M5”, and the laser frequency was 10000 Hz. Spectra were automatically collected using custom Auto Xecute method. Laser power was auto adjusted using fuzzy control. The peak selection range was set to be between 19000 and 21500 Da. Peak evaluation uses half width parameter set to be smaller than 40 Da for processed spectrograms (centroid peak detection; smoothed by SavitzkyGolay algorithm using 7 m/z width and 2 cycles; baseline was subtracted using median algorithm with flatness 1 and median level 0.01). Fuzzy control used Proteins/Oligonucleotides protocol with minimum half width 1/10 times above threshold. Up to 40000 satisfactory shots were collected in 10000 shot steps. Dynamic termination was implemented to finish data collection when peak signal/noise ratio was reaching value of 50.
(§5) Spectra processing: Spectra were smoothed by SavitzkyGolay algorithm using 7 m/z width and three cycles. Centroid peak detection algorithm was used with signal to noise threshold set to 6, relative intensity threshold 4%, peak width 10 m/z and median baseline subtraction using flatness of 1 and median level of 0.01. Peak intensity and area under the peak were evaluated and recorded for all peaks between 19,300 Da and 21,550 Da.
(§6) Calculation of percent modification: Percent modification was calculated as a ratio of peak height for protein modified by compound to sum of peak height of remaining protein plus peak height for protein modified by compound. If multiple modifications were observed each was calculated as a ratio of peak height for given modification versus sum of peak heights for all observed protein species. Data reported in Table 5 are from 15 minutes reaction time point.

[2] = target: T2, GDP-loaded KRAS4b (amino acids 1-169) G12C/C118S protein (Homo sapiens, UniProt P01116, C118S/G12C); test: Covalent cysteine 12 modification by MALDI-TOF MS, GDP-loaded KRAS G12C; format: binding; settings: 15 minutes reaction time point
T2 construct: KRAS4b (amino acids 1-169) G12C/C118S protein; made in house
Method: as §1, §2, §3, §4, §5, §6

pERK in NCI-H358 cells = test: Cell-based pERK HTRF assay; settings: 30 min incubation, read-out: pERK in NCI-H358 cell inhibition IC50
Method: pERK assays (Perkin Elmer) were used to determine the effectiveness of compounds of the present disclosure in disrupting KRAS G12C protein/effector signaling in cells.
On Day 1, cells (NCI-H358) were seeded into 96-well plates at 4×10^4 cells/well in complete growth media (RPMI, 10% FBS).
On Day 2, cells were treated with compounds at 0.25% DMSO. The source plate was created with compounds diluted in media at 5-fold the final assay concentration. The compounds were run in a 9-point concentration curve starting at 75 μM, with a 3-fold dilution between concentrations. 20 μL was transferred onto the cell plates (final volume in wells was 100 μL). Plates were harvested after 30 min incubation by aspirating media and adding kit-supplied 1× supplemented lysis buffer to all wells (75 μl per well). Plates were then placed on a plate shaker and incubated at 850 rpm for an additional 30 min.
Antibody mixture solution was prepared by diluting aliquoted d2 and Eu Cryptate antibodies 1:20 in kit supplied detection buffer, then mixed the diluted antibodies solutions (1:1 v:v). 4 μL of this solution was then added to a 384-well detection plate (Perkin Elmer; 6008230).
Samples were homogenized by pipetting up and down and then transferred (16 μL of cell lysates) from the 96-well cell culture plate to two wells of the HTRF 384-well detection plate containing the antibody solution. Plates were centrifuged (524 g for Imin) and allowed to incubate between 4 and 24 h at room temperature. Maximum signal is reached after 4 h incubation time and remains stable over a period of 24 hours. Therefore, readings can be made between 4 and 24 h of incubation. Plates were centrifuged again (524 g for Imin) and analyzed on the En Vision plate reader using the following settings: Excitation 320 nm, Bandwidth 75 nm; Emission 615 nm, Bandwidth 85 nm; Gain 100%; Flashes 100; Lag 60 μs.

[3] = target: T3, Avi-KRAS G12C (1-169) GppNHp/RAF1 RBD-3×FLAG (52-151) (Homo sapiens, UniProt P01116, G12C); test: Raf1 RBD-KRAS G12C-GppNHp disruption (protein:protein interaction HTRF assay); format: biochemical
T3 construct: Avi-KRAS G12C (1-169) GppNHp/RAF1 RBD-3×FLAG (52-151)
Method: A protein: protein (PPI) interaction Homogeneous Time Resolved Fluorescence (HTRF) assay was used to determine the effectiveness of compounds of the present disclosure in disrupting KRAS G12C protein and effector (RAF1 or PIK3CA) binding.
The HTRF assay used the following reagents and proteins: 50 nM Avi-KRAS G12C Q25A (1-169) GppNHp/3×FLAG-PI3K CA (157-299); 50 nM Avi-KRAS G12C (1-169) GppNHp/RAF1 RBD-3×FLAG (52-151); 35 nM Avi-PI3K RBD-3×FLAG; Assay Buffer: 50 mM Tris pH 7.5, 100 mM NaCl, 5 mM MgCl2, 0.1% BSA, 0.01% Tween 20, 10% DMSO; Bead Buffer: 50 mM Tris pH 7.5, 0.01% Tween 20; Assay volume: 20 μL (384 well plate-low volume format); and Compound titration: 30-0.02 μM, 3× dilution series.
The HTRF assay employed the following protocol:
Compounds were dispensed in assay plate (384-well, Grenier Bione #784075) using Echo (model 555) with dose response settings: 200 nL final volume, titration from 100 μM as a 10-point dilution series. KRAS proteins were prepared in assay buffer, and dispensed on plates, 5 μL per well, then incubated for 1 h at room temperature, with 700 rpm shaking. RAF1 RBD and PI3K RBD CA were prepared in assay buffer, dispensed onto plates, 5 μL per well, and then incubated for 1 h at room temperature, with 700 rpm shaking. Reagent mix was then prepared and dispensed on plates, 10 μL per well, and then incubated for 1 h at room temperature, with 700 rpm shaking.
Plates were analyzed on an Envision plate reader using the following setting: Excitation 320 nm, Bandwidth 75 nm; Emission 615 nm, Bandwidth 85 nm; Gain 100%; Flashes 100; Lag 60 μs. Data was reported as percentage of activity, with DMSO as 100%. Data was plotted and analyzed using Prism 8.

SMILES	GppNHp-KRAS G12C percent of modification [1]	GDP-KRAS G12C percent of modification [2]	IC50 (pERK in NCI-H358 cells) [nM]	IC50 [3] [nM]	IC50 (pERK in NCI-H358 cells; Homo sapiens, NCI-H358, 0.5 h) [nM]
C=CC(=O)N1CC[C@@H](Oc2nc(OC[C@@]34CCCN3C[C@H](F)C4)nc3c(F)c(-c4ccc(F)c5sc(N)nc45)ncc23)C1 [Compound 43]	C (10%≤modification <50%)	A (percent of modification ≥70%)	–	500 to 5000	> 1000
C=CC(=O)N1CCC[C@@H](Oc2nc(OC[C@@H]3C[C@@H](F)CN3C)nc3c(F)c(-c4ccc(F)c5sc(N)nc45)c(C(F)(F)F)cc23)C1 (atropisomer, axis not shown) [Compound 21]	D (percent of modification <10%)	D (percent of modification <10%)	> 1000	> 20000	–
C=CC(=O)N1CC[C@@H](Oc2nc(OC[C@]34CCCN3C[C@H](OC)C4)nc3c(F)c(-c4ccc(F)c5sc(N)nc45)c(C(F)(F)F)cc23)C1 (single isomer, unassigned) [Compound 31]	D (percent of modification <10%)	D (percent of modification <10%)	> 1000	500 to 5000	–
C=CC(=O)N1CC[C@@H](Oc2nc(OC[C@@H]3C[C@@H](F)CN3C)nc3c(F)c(-c4ccc(F)c5sc(N)nc45)c(C(F)(F)F)cc23)C1 (atropisomer, axis not shown) [Compound 19]	D (percent of modification <10%)	D (percent of modification <10%)	> 1000	5000 to 20000	–

Further lines, results first:

GppNHp-KRAS G12C percent of modification [1]	GDP-KRAS G12C percent of modification [2]	IC50 (pERK in NCI-H358 cells) [nM]	IC50 [3] [nM]	IC50 (pERK in NCI-H358 cells; Homo sapiens, NCI-H358, 0.5 h) [nM]	SMILES
D (percent of modification <10%)	C (10%≤modification <50%)	> 1000	500 to 5000	–	C=CC(=O)N1CC[C@H](Oc2nc(OC[C@@]34CCCN3C[C@H](F)C4)nc3c(F)c(-c4ccc(F)c5sc(N)nc45)c(Cl)cc23)C1 (atropisomer, axis not shown) [Compound 8]
A (percent of modification ≥70%)	A (percent of modification ≥70%)	–	≤ 500	≤ 100	C=CC(=O)N1CC[C@@H](Oc2nc(OC[C@@]34CCCN3C[C@H](F)C4)nc3c(F)c(-c4ccc(F)c5sc(N)nc45)c(Cl)cc23)C1 (atropisomer, axis not shown) [Compound 3]
C (10%≤modification <50%)	A (percent of modification ≥70%)	–	≤ 500	≤ 100	C=CC(=O)N1CC(Oc2nc(OC[C@@H]3CCCN3C)nc3c(F)c(-c4ccc(F)c5sc(N)nc45)c(C(F)(F)F)cc23)C1 [Compound 22]
C (10%≤modification <50%)	A (percent of modification ≥70%)	–	≤ 500	≤ 100	C=CC(=O)N1C[C@@H](C)[C@@H](Oc2nc(OC[C@@]34CCCN3C[C@H](F)C4)nc3c(F)c(-c4ccc(F)c5sc(N)nc45)c(C(F)(F)F)cc23)C1 (atropisomer, axis not shown) [Compound 27]
A (percent of modification ≥70%)	A (percent of modification ≥70%)	–	≤ 500	≤ 100	C=CC(=O)N1C[C@@H](F)[C@@H](Oc2nc(OC[C@@]34CCCN3C[C@H](F)C4)nc3c(F)c(-c4ccc(F)c5sc(N)nc45)c(C(F)(F)F)cc23)C1 [Compound 40, 1-((3S,4R)-3-((7-(2-amino-7-fluorobenzo[d]thiazol-4-yl)-8-fluoro-2-(((2R,7aS)-2-fluorotetrahydro-1H-pyrrolizin-7a (5H)-yl)methoxy)-6-(trifluoromethyl)quinazolin-4-yl)oxy)-4-fluoropyrrolidin-1-yl) prop-2-en-1-one]
A (percent of modification ≥70%)	A (percent of modification ≥70%)	–	≤ 500	≤ 100	C=CC(=O)N1C[C@H](Oc2nc(OC[C@@]34CCCN3C[C@H](F)C4)nc3c(F)c(-c4ccc(F)c5sc(N)nc45)c(C(F)(F)F)cc23)C[C@H]1C (atropisomer, axis not shown) [Compound 37]
